Test results published in patent US20100197604A1, “USE OF PEPTIDE AS A THERAPEUTIC AGENT” (priority 2007, published 2010).

Legend:
HIV-1IIIB = experiment: HIV-1 antiviral assay (CPE reduction, MTS); format: cell-based; conditions: peptide 10 micrograms per ml, 6 days post-infection
CEM-SS cells = experiment: Cytotoxicity in CEM-SS cells (MTS cell viability); conditions: peptide 10 micrograms per ml
Streptococcus pneumoniae = format: cell-based; conditions: 5 micrograms per ml
MRSA = conditions: 5 micrograms per ml
Pseudomonas aeruginosa = format: cell-based; conditions: 5 micrograms per ml
HepG2-2.2.15 cells = experiment: Cytotoxicity in HepG2-2.2.15 cells (dye uptake); conditions: test peptide 10 micrograms per ml
[1] = test system: MRC-5 cells (human embryonal lung fibroblasts); conditions: 6 days

Cc1cn([C@H]2C[C@H](N=[N+]=[N-])[C@@H](CO)O2)c(=O)[nH]c1=O [AZT]
% CPE reduction in HIV-1 infected CEM-SS cells (HIV-1IIIB): 99%
% Cell viability (CEM-SS cells): 97%

CC[C@H](C)[C@H](NC(=O)[C@H](Cc1ccc(O)cc1)NC(=O)[C@@H](NC(=O)[C@H](CCCNC(=N)N)NC(=O)[C@@H](N)CC(=O)O)C(C)C)C(=O)N[C@@H](Cc1c[nH]cn1)C(=O)N1CCC[C@H]1C(=O)N[C@@H](Cc1ccccc1)C(=O)O [Angiotensin II]
% inhibition (Streptococcus pneumoniae): 100.0%
% inhibition (MRSA): 0.0%
% inhibition (Pseudomonas aeruginosa): 0.0%

Nc1ccn([C@@H]2CS[C@H](CO)O2)c(=O)n1 [Compound 3TC, Lamivudine]
% Cell viability (HepG2-2.2.15 cells): 95.8%

Nc1nc(O)c2ncn(COC(CO)CO)c2n1 [Ganciclovir]
% Cell viability [1]: 100%
